Laboratory results from paper PMC11087525 (Scientific Reports, 2024).

Key:
SARS-CoV-2 Delta variant [1] = format: cell-based
SARS-CoV-2 Delta variant [2] = details: cited from earlier work

CC(C)(C)[C@H](NC(=O)C(F)(F)F)C(=O)N1C[C@H]2[C@@H]([C@H]1C(=O)N[C@H](C#N)C[C@@H]1CCNC1=O)C2(C)C [NMR, nirmatrelvir]
EC90 for the Delta variant multiplied by a factor of 3 (SARS-CoV-2 Delta variant [1]): 0.3 µg/mL | EC90 for the Delta variant (SARS-CoV-2 Delta variant [2]; conversion of 0.149 µM): ~ 100 ng/mL | EC90 (SARS-CoV-2 Delta variant [2]; used in PBPK simulation study): 149 nM
